Results from patent US11236081B2, “Crystalline salts of corydalmine” (priority 2018, dated 2022).
Several values for one entry are separate records, joined by “and”; a condition that tells them apart may be missing. Equal values may be shown once.

Experiments:
[1] = Pharmacokinetic study: plasma concentration and plasma PK parameters after IV/PO dosing (LC-MS/MS, WinNonlin); type: in vivo, Male SD Rat; conditions: for AUCInf / AUClast / AUClast/D / AUC—% Extrap_obs / Cmax / MRTInf_obs / T1/2 / Tmax / AUCInf, Mean / AUClast, Mean / AUClast/D, Mean / AUC—% Extrap_obs, Mean / Cmax, Mean / MRTInf_obs, Mean / T1/2, Mean / Tmax, Mean: plasma
From the text: Pharmacokinetic and Brain Penetration Study
Dose formulation processing during dosing: The dose formulations will be kept at room temperature.
Concentrations of Test Article in the plasma samples will be analyzed using a LC-MS/MS method.
WinNonlin (Phoenix™, version 6.1) or other similar software will be used for pharmacokinetic calculations. The following pharmacokinetic parameters will be calculated, whenever possible from the plasma concentration versus time data:
IV administration: T1/2, C0, AUClast, AUCinf, MRTinf, Cl, Vss, Number of Points for Regression.
PO administration: T1/2, Cmax, Tmax, MRTinf, AUCinf, AUClast, F %, Number of Points for Regression.
The pharmacokinetic data will be described using descriptive statistics such as mean, standard deviation.

[2] = Solubility studies in water at 2 hours; type: physicochemical
[3] = male SD rat, PO 10 mg/kg (equal to freebase), individual rats, vehicle 20% HP-β-CD in water (POA, freebase) or water (salts), 10 mg/kg
[4] = male SD rat, PO 10 mg/kg (equal to freebase), mean n=3, vehicle 20% HP-β-CD in water (POA, freebase) or water (salts)
[5] = PO (group POF), 10 mg/kg, individual rats R49, R50, R51, 10 mg/kg
[6] = PO (group POF), 10 mg/kg, mean of R49-R51

COc1cc2c(cc1OC)C1Cc3ccc(O)c(OC)c3CN1CC2.CS(=O)(=O)O (stereo not drawn) [TLZ-16 mesylate]
F ([1]; male SD rat, PO 10 mg/kg (equal to freebase) vs IV 3 mg/kg freebase, individual rats, vehicle 20% HP-β-CD in water (POA, freebase) or water (salts)): 39.9% and 42.6% and 38.1% | F, Mean ([1]; male SD rat, PO 10 mg/kg (equal to freebase) vs IV 3 mg/kg freebase, mean n=3, vehicle 20% HP-β-CD in water (POA, freebase) or water (salts)): 40.2% | concentration in plasma ([1]; male SD rat, PO 10 mg/kg (equal to freebase), 0 h, individual rats, vehicle 20% HP-β-CD in water (POA, freebase) or water (salts)): BLOQ (BLOQ = below limit of quantitation (0.2 ng/mL)) | concentration in plasma ([1]; male SD rat, PO 10 mg/kg (equal to freebase), 0.25 h, individual rats, vehicle 20% HP-β-CD in water (POA, freebase) or water (salts), 10 mg/kg): 0.227 µg/mL and 0.253 µg/mL and 0.256 µg/mL | concentration in plasma, Mean ([1]; male SD rat, PO 10 mg/kg (equal to freebase), 0.25 h, mean n=3, vehicle 20% HP-β-CD in water (POA, freebase) or water (salts)): 0.245 µg/mL | concentration in plasma ([1]; male SD rat, PO 10 mg/kg (equal to freebase), 0.5 h, individual rats, vehicle 20% HP-β-CD in water (POA, freebase) or water (salts), 10 mg/kg): 0.192 µg/mL and 0.233 µg/mL and 0.338 µg/mL | concentration in plasma, Mean ([1]; male SD rat, PO 10 mg/kg (equal to freebase), 0.5 h, mean n=3, vehicle 20% HP-β-CD in water (POA, freebase) or water (salts)): 0.254 µg/mL | concentration in plasma ([1]; male SD rat, PO 10 mg/kg (equal to freebase), 1 h, individual rats, vehicle 20% HP-β-CD in water (POA, freebase) or water (salts), 10 mg/kg): 0.162 µg/mL and 0.197 µg/mL and 0.208 µg/mL | concentration in plasma, Mean ([1]; male SD rat, PO 10 mg/kg (equal to freebase), 1 h, mean n=3, vehicle 20% HP-β-CD in water (POA, freebase) or water (salts)): 0.189 µg/mL | concentration in plasma ([1]; male SD rat, PO 10 mg/kg (equal to freebase), 2 h, individual rats, vehicle 20% HP-β-CD in water (POA, freebase) or water (salts), 10 mg/kg): 0.211 µg/mL and 0.18 µg/mL and 0.271 µg/mL | concentration in plasma, Mean ([1]; male SD rat, PO 10 mg/kg (equal to freebase), 2 h, mean n=3, vehicle 20% HP-β-CD in water (POA, freebase) or water (salts)): 0.221 µg/mL | concentration in plasma ([1]; male SD rat, PO 10 mg/kg (equal to freebase), 4 h, individual rats, vehicle 20% HP-β-CD in water (POA, freebase) or water (salts), 10 mg/kg): 0.208 µg/mL and 0.155 µg/mL and 0.122 µg/mL | concentration in plasma, Mean ([1]; male SD rat, PO 10 mg/kg (equal to freebase), 4 h, mean n=3, vehicle 20% HP-β-CD in water (POA, freebase) or water (salts)): 0.162 µg/mL | concentration in plasma ([1]; male SD rat, PO 10 mg/kg (equal to freebase), 8 h, individual rats, vehicle 20% HP-β-CD in water (POA, freebase) or water (salts), 10 mg/kg): 0.0703 µg/mL and 0.0407 µg/mL and 0.0352 µg/mL | concentration in plasma, Mean ([1]; male SD rat, PO 10 mg/kg (equal to freebase), 8 h, mean n=3, vehicle 20% HP-β-CD in water (POA, freebase) or water (salts)): 0.0487 µg/mL | concentration in plasma ([1]; male SD rat, PO 10 mg/kg (equal to freebase), 24 h, individual rats, vehicle 20% HP-β-CD in water (POA, freebase) or water (salts), 10 mg/kg): BLOQ (BLOQ = below limit of quantitation (0.2 ng/mL)) (2×) and 0.454 ng/mL | AUCInf [1, 3]: 1.69 µg·h/mL and 1.446 µg·h/mL and 1.294 µg·h/mL | AUClast [1, 3]: 1.331 µg·h/mL and 1.444 µg·h/mL and 1.19 µg·h/mL | AUClast/D [1, 3]: 133 kg·ng·h/mL/mg and 144 kg·ng·h/mL/mg and 119 kg·ng·h/mL/mg | AUC—% Extrap_obs [1, 3]: 21.2% and 0.109% and 8.09% | Cmax [1, 3]: 0.227 µg/mL and 0.253 µg/mL and 0.338 µg/mL | MRTInf_obs [1, 3]: 5.40 h and 4.15 h and 3.26 h | T1/2 [1, 3]: 3.54 h and 2.40 h and 2.06 h | Tmax [1, 3]: 0.25 h (2×) and 0.5 h | AUCInf, Mean [1, 4]: 1.477 µg·h/mL | AUClast, Mean [1, 4]: 1.322 µg·h/mL | AUClast/D, Mean [1, 4]: 132 kg·ng·h/mL/mg | AUC—% Extrap_obs, Mean [1, 4]: 9.82% | Cmax, Mean [1, 4]: 0.273 µg/mL | MRTInf_obs, Mean [1, 4]: 4.27 h | T1/2, Mean [1, 4]: 2.67 h | Tmax, Mean [1, 4]: 0.333 h | solubility in water [2]: approximately 20 mg/mL

COc1cc2c(cc1OC)[C@@H]1Cc3ccc(O)c(OC)c3CN1CC2.O=S(=O)(O)O [TLZ-16 sulfate]
F [1, 5]: 24.8% and 31.7% and 44.5% | F, Mean [1, 6]: 33.7% | concentration in plasma, Conc. ([1]; PO (group POF), 10 mg/kg, time 0 h, individual rats R49, R50, R51): BLOQ (BLOQ = below limit of quantitation (0.2 ng/mL)) | concentration in plasma, Conc. ([1]; PO (group POF), 10 mg/kg, time 0.25 h, individual rats R49, R50, R51, 10 mg/kg): 0.231 µg/mL and 0.226 µg/mL and 0.349 µg/mL | concentration in plasma, Mean ([1]; PO (group POF), 10 mg/kg, time 0.25 h, mean of R49-R51): 0.269 µg/mL | concentration in plasma, Conc. ([1]; PO (group POF), 10 mg/kg, time 0.5 h, individual rats R49, R50, R51, 10 mg/kg): 0.229 µg/mL and 0.223 µg/mL and 0.401 µg/mL | concentration in plasma, Mean ([1]; PO (group POF), 10 mg/kg, time 0.5 h, mean of R49-R51): 0.284 µg/mL | concentration in plasma, Conc. ([1]; PO (group POF), 10 mg/kg, time 1 h, individual rats R49, R50, R51, 10 mg/kg): 0.117 µg/mL and 0.161 µg/mL and 0.24 µg/mL | concentration in plasma, Mean ([1]; PO (group POF), 10 mg/kg, time 1 h, mean of R49-R51): 0.173 µg/mL | concentration in plasma, Conc. ([1]; PO (group POF), 10 mg/kg, time 2 h, individual rats R49, R50, R51, 10 mg/kg): 0.119 µg/mL and 0.152 µg/mL and 0.189 µg/mL | concentration in plasma, Mean ([1]; PO (group POF), 10 mg/kg, time 2 h, mean of R49-R51): 0.153 µg/mL | concentration in plasma, Conc. ([1]; PO (group POF), 10 mg/kg, time 4 h, individual rats R49, R50, R51, 10 mg/kg): 0.103 µg/mL and 0.11 µg/mL and 0.203 µg/mL | concentration in plasma, Mean ([1]; PO (group POF), 10 mg/kg, time 4 h, mean of R49-R51): 0.139 µg/mL | concentration in plasma, Conc. ([1]; PO (group POF), 10 mg/kg, time 8 h, individual rats R49, R50, R51, 10 mg/kg): 0.0224 µg/mL and 0.0399 µg/mL and 0.0878 µg/mL | concentration in plasma, Mean ([1]; PO (group POF), 10 mg/kg, time 8 h, mean of R49-R51): 0.05 µg/mL | concentration in plasma, Conc. ([1]; PO (group POF), 10 mg/kg, time 24 h, individual rats R49, R50, R51): BLOQ (BLOQ = below limit of quantitation (0.2 ng/mL)) | AUCInf [1, 5]: 0.84 µg·h/mL and 1.074 µg·h/mL and 2.115 µg·h/mL | AUClast [1, 5]: 0.764 µg·h/mL and 0.899 µg·h/mL and 1.486 µg·h/mL | AUClast/D [1, 5]: 76.4 kg·ng·h/mL/mg and 89.9 kg·ng·h/mL/mg and 149 kg·ng·h/mL/mg | AUC—% Extrap_obs [1, 5]: 9.10% and 16.3% and 29.8% | Cmax [1, 5]: 0.231 µg/mL and 0.226 µg/mL and 0.401 µg/mL | MRTInf_obs [1, 5]: 3.53 h and 4.44 h and 6.73 h | T1/2 [1, 5]: 2.37 h and 3.05 h and 4.97 h | Tmax [1, 5]: 0.25 h (2×) and 0.5 h | AUCInf, Mean [1, 6]: 1.343 µg·h/mL | AUClast, Mean [1, 6]: 1.049 µg·h/mL | AUClast/D, Mean [1, 6]: 105 kg·ng·h/mL/mg | AUC—% Extrap_obs, Mean [1, 6]: 18.4% | Cmax, Mean [1, 6]: 0.286 µg/mL | MRTInf_obs, Mean [1, 6]: 4.90 h | T1/2, Mean [1, 6]: 3.46 h | Tmax, Mean [1, 6]: 0.333 h | solubility in water [2]: approximately 20 mg/mL
